Like-named read-outs stand apart in the source and are kept apart here.
Legend:
STK3 (MST2) = STK3 (MST2) (Homo sapiens (Human), UniProt Q13188); test: Z-lyte biochemical IC50 assay (Invitrogen); details: ATP concentration matched the Km
YAP1 = test: Western blotting; type: cell-based; details: for YAP1 levels: H929 and MM.1S cells
Excerpt: (§1) MM.1S, KMS20 and H929 cells are counted, diluted and plated. Cells are then […] with DMSO or different concentration of a compound of the present application for 6 hrs, 24 hrs or 48 hrs. MM cells are then collected and centrifuged at RT and the pellets are re-suspended in lysis buffer. Cell lysates are subjected to sodium dodecyl sulfate-polyacrylamide gel electrophoresis SDS-PAGE, transferred to nitrocellulose membranes, and immunoblotted with different antibodies.
(§2) MM.1S, KMS20 and H929 cells were counted, diluted and plated in six-well plates to a final concentration of 500,000 cells/well. Cells were then […] with DMSO or different concentration of a compound of the present application for 6 hrs, 24 hrs or 48 hrs. MM cells were then collected and centrifuged for 5 min, 1300 rpm at RT. The pellets were re-suspended in lysis buffer Laemli 1× (Laemli 5×: SDS 10%, DTT 500 mM, Tris-HCl pH6.8 0.4M, BromoFenol Blue, Glycerol 50%). Cell lysates were subjected to sodium dodecyl sulfate-polyacrylamide gel electrophoresis SDS-PAGE, transferred to nitrocellulose membranes, and immunoblotted with different antibodies: YAP1 (#4912), p-YAP1 (S127) (#13008), LATS1 (#9153), p-LATS1 (Thr1079) (#8654), MOB1 (#3863), p-MOB1 (Thr12) (#8843), p-MST1/p-MST2 (Thr183/Thr180) (#3681), p21 (#2947), PARP (#9532), ERK, STAT, and GAPDH (#5174) from Cell Signaling, Beverly, Mass., United States; STK4 (ab57836) (from Abcam, Cambridge, Mass., United States); PUMA (sc-28226), BAX (sc-20067), from Santa Cruz, Dallas, Tex., United States; β-actin from Sigma-Aldrich (St. Louis, Mo., United States). All antibodies were diluted 1:500, except for β-actin antibody (1:50,000 dilution). In FIG. 8, H929 cells were treated with Compound I-9 or DMSO at 1 μM concentration for 24 hours. Lysates were then obtained and immunoblot was performed using antibodies against PARP, YAP1, PUMA, BAX. p21, and GAPDH.
In FIG. 10A, H929 and MM.1S cells were treated with Compound I-1 or DMSO at 1 μM and 10 μM concentrations for 16 hours. Lysates were then obtained and immunoblot was performed using antibodies against YAP1 and GAPDH.
In FIG. 12, H929 and MM. 1S cells were treated with Compound I-9, Compound I-12, or DMSO at 3 μM and 10 μM concentrations for 72 hours. Lysates were then obtained and immunoblot was performed using antibodies against YAP1 and Actin as loading control.
FIG. 13 show a Western blot of H929 and MM.1S cells treated with Compound I-13, Compound I-28, Compound I-9, KIN001-305, BMS536924, or DMSO at 1 μM concentration for 16 hours. Lysates were then obtained and immunoblot was performed using antibodies against YAP1, Actin, and pMOB1.

p-MOB1 = test: Western blotting; type: cell-based; details: MM.1S cells, 1 μM and 10 μM, 6 hours
Excerpt: as §1, §2
In FIGS. 26A-26J, MM.1S cells were treated with Compound I-6, Compound I-31, Compound I-30, Compound I-22, Compound I-27, Compound I-1, Compound I-23, Compound I-13, Compound I-28, Compound I-9, or DMSO at 1 μM and 10 μM concentrations for 6 hours. Lysates were then obtained and immunoblot was performed using antibodies against MOB1 and p-MOB1. As shown from FIGS. 26A-26J, Compound I-22, Compound I-27, Compound I-1, Compound I-23, Compound I-13, Compound I-28, and Compound I-9 reduced PMOB1 levels at different concentrations.

AKT2, AKT3 = test: KiNativ assay; type: binding; details: H929 live cell; for % inhibition (range): 10 μM
Procedure, shortened: (§3)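 Compounds were tested in duplicate at 10 μM in live H929 cells, and kinase engagement was profiled by KiNativ with mass spectrometry read-out to derive IC50.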

CDK9 = CDK9 (Homo sapiens (Human), UniProt P50750); test: KiNativ assay; type: binding; details: H929 live cell
Procedure, shortened: as §3

KHS2 = KHS2 (Homo sapiens (Human), UniProt Q8IVH8); test: KiNativ assay; type: binding; details: H929 live cell
Procedure, shortened: as §3

MAP2K2 = MAP2K2 (Homo sapiens (Human), UniProt P36507); test: KiNativ assay; type: binding; details: H929 live cell
Procedure, shortened: as §3

SGK2 = SGK2 (Homo sapiens (Human), UniProt Q9HBY8); test: KiNativ assay; type: binding; details: H929 live cell
Procedure, shortened: as §3

MLK4 = MLK4 (Homo sapiens (Human), UniProt Q5TCX8); test: KiNativ assay; type: binding; details: H929 live cell
Procedure, shortened: as §3

PAK2 = PAK2 (Homo sapiens (Human), UniProt Q13177); test: KiNativ assay; type: binding; details: H929 live cell
Procedure, shortened: as §3

ZC3/MINK = ZC3/MINK (Homo sapiens (Human), UniProt Q8N4C8); test: KiNativ assay; type: binding; details: H929 live cell
Procedure, shortened: as §3

[1] = range class, read-out: % inhibition

Sequence of KHS2 (Q8IVH8 whole entry): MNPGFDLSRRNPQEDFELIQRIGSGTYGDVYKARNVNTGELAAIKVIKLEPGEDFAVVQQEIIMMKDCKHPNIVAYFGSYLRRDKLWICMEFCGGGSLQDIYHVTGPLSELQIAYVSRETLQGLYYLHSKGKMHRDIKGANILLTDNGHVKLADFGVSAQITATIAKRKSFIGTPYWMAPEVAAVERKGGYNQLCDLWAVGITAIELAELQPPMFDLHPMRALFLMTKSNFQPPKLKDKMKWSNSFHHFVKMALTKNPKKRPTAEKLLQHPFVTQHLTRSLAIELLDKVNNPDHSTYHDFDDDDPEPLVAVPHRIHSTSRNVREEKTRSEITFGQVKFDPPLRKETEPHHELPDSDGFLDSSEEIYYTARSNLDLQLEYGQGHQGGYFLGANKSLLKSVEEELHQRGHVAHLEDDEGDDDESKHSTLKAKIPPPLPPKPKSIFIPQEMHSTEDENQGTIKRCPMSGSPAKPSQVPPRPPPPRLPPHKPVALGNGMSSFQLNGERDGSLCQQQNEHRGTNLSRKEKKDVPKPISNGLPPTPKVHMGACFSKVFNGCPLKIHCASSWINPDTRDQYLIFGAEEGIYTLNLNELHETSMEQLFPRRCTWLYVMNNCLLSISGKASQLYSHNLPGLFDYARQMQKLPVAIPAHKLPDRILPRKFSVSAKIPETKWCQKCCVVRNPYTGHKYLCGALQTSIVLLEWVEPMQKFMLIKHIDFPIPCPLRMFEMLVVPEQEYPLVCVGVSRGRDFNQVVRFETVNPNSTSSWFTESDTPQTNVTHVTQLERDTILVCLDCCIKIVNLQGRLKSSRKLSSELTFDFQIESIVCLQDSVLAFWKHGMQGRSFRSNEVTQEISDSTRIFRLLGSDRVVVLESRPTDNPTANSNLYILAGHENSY
Sequence of PAK2 (Q13177 whole entry): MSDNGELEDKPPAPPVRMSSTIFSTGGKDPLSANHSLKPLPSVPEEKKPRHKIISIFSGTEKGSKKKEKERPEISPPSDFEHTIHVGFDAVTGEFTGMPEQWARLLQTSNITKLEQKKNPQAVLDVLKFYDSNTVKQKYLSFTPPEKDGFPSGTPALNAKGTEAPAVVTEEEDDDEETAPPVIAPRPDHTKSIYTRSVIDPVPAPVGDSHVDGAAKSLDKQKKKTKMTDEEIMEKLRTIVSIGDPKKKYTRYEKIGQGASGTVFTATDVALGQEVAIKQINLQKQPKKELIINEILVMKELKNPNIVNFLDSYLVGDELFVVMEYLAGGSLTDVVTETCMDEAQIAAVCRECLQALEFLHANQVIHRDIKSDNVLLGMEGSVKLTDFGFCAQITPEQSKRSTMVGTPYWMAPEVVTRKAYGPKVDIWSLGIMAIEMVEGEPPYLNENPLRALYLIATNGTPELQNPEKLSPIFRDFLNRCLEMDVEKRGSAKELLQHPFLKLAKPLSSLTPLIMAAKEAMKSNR
Sequence of SGK2 (Q9HBY8 whole entry): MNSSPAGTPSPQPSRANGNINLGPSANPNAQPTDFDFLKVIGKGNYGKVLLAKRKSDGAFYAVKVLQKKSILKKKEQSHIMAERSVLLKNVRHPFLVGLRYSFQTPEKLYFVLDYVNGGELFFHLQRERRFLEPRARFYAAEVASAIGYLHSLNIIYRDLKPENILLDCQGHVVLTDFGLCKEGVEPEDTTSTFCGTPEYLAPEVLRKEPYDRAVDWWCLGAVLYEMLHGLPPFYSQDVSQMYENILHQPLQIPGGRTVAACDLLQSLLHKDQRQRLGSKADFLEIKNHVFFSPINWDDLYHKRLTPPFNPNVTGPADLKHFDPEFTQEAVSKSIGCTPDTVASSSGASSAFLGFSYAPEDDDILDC
Sequence of STK3 (MST2) (Q13188 whole entry): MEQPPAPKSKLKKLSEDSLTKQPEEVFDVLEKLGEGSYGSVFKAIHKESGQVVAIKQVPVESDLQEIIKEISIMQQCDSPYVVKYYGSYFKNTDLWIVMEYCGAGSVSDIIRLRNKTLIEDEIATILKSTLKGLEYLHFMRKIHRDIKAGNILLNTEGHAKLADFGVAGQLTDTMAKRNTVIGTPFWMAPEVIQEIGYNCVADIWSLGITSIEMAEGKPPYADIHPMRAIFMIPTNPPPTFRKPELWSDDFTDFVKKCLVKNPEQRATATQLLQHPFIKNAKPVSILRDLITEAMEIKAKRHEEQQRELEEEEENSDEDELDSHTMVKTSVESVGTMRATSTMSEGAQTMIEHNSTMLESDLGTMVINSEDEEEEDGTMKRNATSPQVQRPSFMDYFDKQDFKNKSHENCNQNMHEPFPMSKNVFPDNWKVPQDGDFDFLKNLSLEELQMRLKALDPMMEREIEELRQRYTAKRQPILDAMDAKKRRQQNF
Sequence of MLK4 (Q5TCX8 whole entry): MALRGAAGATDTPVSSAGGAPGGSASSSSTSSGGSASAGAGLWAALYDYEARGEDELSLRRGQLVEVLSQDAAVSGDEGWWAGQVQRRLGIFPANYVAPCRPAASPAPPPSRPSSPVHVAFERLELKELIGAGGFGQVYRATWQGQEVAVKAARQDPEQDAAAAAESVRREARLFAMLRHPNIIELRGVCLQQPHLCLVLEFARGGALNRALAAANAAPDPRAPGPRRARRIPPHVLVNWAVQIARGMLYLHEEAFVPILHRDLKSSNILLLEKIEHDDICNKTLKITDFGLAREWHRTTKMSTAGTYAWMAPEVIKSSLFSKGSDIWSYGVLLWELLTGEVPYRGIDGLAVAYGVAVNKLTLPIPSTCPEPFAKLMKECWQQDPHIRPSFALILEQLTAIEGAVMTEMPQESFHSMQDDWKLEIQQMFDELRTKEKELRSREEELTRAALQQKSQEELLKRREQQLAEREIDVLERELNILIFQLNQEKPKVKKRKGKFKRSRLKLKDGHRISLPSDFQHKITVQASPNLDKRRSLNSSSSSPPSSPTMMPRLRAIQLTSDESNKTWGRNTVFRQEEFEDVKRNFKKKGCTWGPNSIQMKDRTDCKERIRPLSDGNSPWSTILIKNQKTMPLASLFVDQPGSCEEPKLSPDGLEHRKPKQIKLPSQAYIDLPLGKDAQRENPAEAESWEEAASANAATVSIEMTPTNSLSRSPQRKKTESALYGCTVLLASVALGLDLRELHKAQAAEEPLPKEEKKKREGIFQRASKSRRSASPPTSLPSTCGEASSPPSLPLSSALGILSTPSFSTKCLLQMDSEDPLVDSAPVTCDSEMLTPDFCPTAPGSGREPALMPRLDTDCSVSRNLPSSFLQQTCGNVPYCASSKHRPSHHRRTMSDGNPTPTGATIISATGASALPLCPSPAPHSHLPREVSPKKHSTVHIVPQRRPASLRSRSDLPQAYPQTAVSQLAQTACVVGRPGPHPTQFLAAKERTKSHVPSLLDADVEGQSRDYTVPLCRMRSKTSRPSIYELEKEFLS
Sequence of MAP2K2 (P36507 whole entry): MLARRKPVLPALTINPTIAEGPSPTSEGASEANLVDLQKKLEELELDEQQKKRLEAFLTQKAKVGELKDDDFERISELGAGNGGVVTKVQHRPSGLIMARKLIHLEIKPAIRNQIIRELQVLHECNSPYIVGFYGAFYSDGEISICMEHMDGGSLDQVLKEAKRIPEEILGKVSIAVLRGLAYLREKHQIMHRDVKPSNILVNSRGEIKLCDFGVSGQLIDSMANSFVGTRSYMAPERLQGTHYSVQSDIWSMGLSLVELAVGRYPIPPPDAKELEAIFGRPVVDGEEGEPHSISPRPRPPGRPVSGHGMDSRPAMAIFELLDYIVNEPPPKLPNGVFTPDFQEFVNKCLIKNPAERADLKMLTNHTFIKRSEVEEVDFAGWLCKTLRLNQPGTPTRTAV
Sequence of ZC3/MINK (Q8N4C8 whole entry): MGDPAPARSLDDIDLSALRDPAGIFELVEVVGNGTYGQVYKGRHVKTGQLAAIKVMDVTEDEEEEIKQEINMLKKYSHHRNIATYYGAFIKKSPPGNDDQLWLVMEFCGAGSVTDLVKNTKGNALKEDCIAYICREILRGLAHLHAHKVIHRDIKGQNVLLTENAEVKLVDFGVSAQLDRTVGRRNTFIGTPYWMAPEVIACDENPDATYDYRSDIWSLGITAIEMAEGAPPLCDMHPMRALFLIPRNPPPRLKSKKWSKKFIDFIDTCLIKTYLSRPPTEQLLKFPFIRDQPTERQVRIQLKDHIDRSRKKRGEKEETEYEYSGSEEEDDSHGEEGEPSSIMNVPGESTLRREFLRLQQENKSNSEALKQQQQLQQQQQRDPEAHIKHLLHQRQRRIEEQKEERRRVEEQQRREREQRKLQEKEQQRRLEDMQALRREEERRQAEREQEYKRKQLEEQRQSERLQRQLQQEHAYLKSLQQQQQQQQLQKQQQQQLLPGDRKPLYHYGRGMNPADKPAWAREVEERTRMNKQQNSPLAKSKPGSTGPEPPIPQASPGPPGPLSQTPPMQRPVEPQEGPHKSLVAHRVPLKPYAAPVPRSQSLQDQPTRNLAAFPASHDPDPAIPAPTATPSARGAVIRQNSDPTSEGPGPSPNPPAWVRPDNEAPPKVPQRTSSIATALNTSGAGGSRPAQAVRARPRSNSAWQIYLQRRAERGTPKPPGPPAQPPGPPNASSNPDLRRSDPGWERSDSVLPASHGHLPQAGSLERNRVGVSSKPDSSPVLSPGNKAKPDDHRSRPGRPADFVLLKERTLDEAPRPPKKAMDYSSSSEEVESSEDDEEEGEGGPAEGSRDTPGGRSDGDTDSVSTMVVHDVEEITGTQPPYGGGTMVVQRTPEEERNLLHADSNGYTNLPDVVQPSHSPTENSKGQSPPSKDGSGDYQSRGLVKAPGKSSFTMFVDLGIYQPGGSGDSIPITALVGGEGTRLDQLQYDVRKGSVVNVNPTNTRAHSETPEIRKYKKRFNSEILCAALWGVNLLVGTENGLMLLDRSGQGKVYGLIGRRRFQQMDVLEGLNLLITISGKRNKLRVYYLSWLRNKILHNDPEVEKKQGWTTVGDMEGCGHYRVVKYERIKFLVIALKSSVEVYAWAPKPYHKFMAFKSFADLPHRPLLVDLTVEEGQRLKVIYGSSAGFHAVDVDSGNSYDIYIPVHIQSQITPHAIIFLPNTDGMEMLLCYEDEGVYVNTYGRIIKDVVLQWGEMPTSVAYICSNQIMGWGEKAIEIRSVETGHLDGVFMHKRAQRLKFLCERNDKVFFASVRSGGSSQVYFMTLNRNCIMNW

Nc1ncc(-c2cc([N+](=O)[O-])ccc2F)cc1-c1ccc2c(c1)CCNC2=O [Compound I-1, 6-(2-amino-5-(2-fluoro-5-nitrophenyl)pyridin-3-yl)-3,4-dihydroisoquinolin-1(2H)-one]
IC50 (STK3 (MST2)): 40 to 200 nM | protein levels of YAP1 (YAP1; H929 cells and MM.1S cells, 1 μM and 10 μM, 16 hours): upregulation | PMOB1 levels (p-MOB1): reduced

Nc1ncc(-c2cccc([N+](=O)[O-])c2F)cc1-c1ccc2c(c1)CCNC2=O [Compound I-9, 6-(2-amino-5-(2-fluoro-3-nitrophenyl)pyridin-3-yl)-3,4-dihydroisoquinolin-1(2H)-one]
IC50 (STK3 (MST2)): < 40 nM | YAP1 levels (YAP1; 1 μM, 16 hours): increase | YAP1 levels (YAP1; 3 μM and 10 μM, 72 hours): low | protein levels of YAP1 (YAP1; H929 cells, 1 μM, 24 hours): upregulation | PMOB1 levels (p-MOB1): reduced | % inhibition (range) (AKT2, AKT3): 0.0% | inhibition (10 μM) (AKT2, AKT3): −1.3% | inhibition at 10 µM (CDK9; read-out: % inhibition (range)): 50 to 75% | inhibition at 10 µM (CDK9; read-out: inhibition (10 μM)): 65.8% | inhibition at 10 µM (KHS2; read-out: % inhibition (range)): 50 to 75% | inhibition at 10 µM (KHS2; read-out: inhibition (10 μM)): 69.5% | inhibition at 10 µM (MAP2K2; read-out: % inhibition (range)): 0% | inhibition at 10 µM (MAP2K2; read-out: inhibition (10 μM)): -8.7% | inhibition at 10 µM (SGK2; read-out: % inhibition (range)): 0% | inhibition at 10 µM (SGK2; read-out: inhibition (10 μM)): -5.4%

CN(C1CC1)S(=O)(=O)c1ccc(-c2cnc(N)c(-c3ccc4c(c3)CCNC4=O)c2)c(F)c1 [Compound I-28, 4-(6-amino-5-(1-oxo-1,2,3,4-tetrahydroisoquinolin-6-yl)pyridin-3-yl)-N-cyclopropyl-3-fluoro-N-methylbenzenesulfonamide]
IC50 (STK3 (MST2)): < 40 nM | YAP1 levels (YAP1; 1 μM, 16 hours): increase | PMOB1 levels (p-MOB1): reduced | % inhibition (range) (AKT2, AKT3): 0.0% | inhibition (10 μM) (AKT2, AKT3): 14.9% | inhibition at 10 µM (CDK9; read-out: % inhibition (range)): 0% | inhibition at 10 µM (CDK9; read-out: inhibition (10 μM)): 28.9% | inhibition at 10 µM (KHS2; read-out: % inhibition (range)): 50 to 75% | inhibition at 10 µM (KHS2; read-out: inhibition (10 μM)): 68.3% | inhibition at 10 µM (MAP2K2; read-out: % inhibition (range)): 0% | inhibition at 10 µM (MAP2K2; read-out: inhibition (10 μM)): -23.7% | inhibition at 10 µM (SGK2; read-out: % inhibition (range)): 0% | inhibition at 10 µM (SGK2; read-out: inhibition (10 μM)): -30.3%

COc1cc(NS(=O)(=O)C2CC2)ccc1-c1cnc(N)c(-c2ccc3c(c2)CCNC3=O)c1 [Compound I-50, N-(4-(6-amino-5-(1-oxo-1,2,3,4-tetrahydroisoquinolin-6-yl)pyridin-3-yl)-3-methoxyphenyl) cyclopropanesulfonamide]
inhibition at 10 µM (MLK4; [1]): 0% | inhibition at 10 µM (MLK4; read-out: inhibition (10 μM)): 30.2% | inhibition at 10 µM (PAK2; [1]): 0% | inhibition at 10 µM (PAK2; read-out: inhibition (10 μM)): 20.2% | inhibition at 10 µM (ZC3/MINK; [1]): 50 to 75% | inhibition at 10 µM (ZC3/MINK; read-out: inhibition (10 μM)): 57.6%

Nc1ncc(-c2ccc(NS(=O)(=O)C3CC3)cc2F)cc1-c1ccc2c(c1)CCNC2=O [Compound I-51, N-(4-(6-amino-5-(1-oxo-1,2,3,4-tetrahydroisoquinolin-6-yl)pyridin-3-yl)-3-fluorophenyl) cyclopropanesulfonamide]
inhibition at 10 µM (MLK4; [1]): 0% | inhibition at 10 µM (MLK4; read-out: inhibition (10 μM)): 14.2% | inhibition at 10 µM (PAK2; [1]): 0% | inhibition at 10 µM (PAK2; read-out: inhibition (10 μM)): -14% | inhibition at 10 µM (ZC3/MINK; [1]): 50 to 75% | inhibition at 10 µM (ZC3/MINK; read-out: inhibition (10 μM)): 63.4%

Nc1ncc(-c2ccc(NS(=O)(=O)C3CC3)cc2OC2CCCCC2)cc1-c1ccc2c(c1)CCNC2=O [Compound I-65, N-(4-(6-amino-5-(1-oxo-1,2,3,4-tetrahydroisoquinolin-6-yl)pyridin-3-yl)-3-(cyclohexyloxy)phenyl) cyclopropanesulfonamide]
inhibition at 10 µM (MLK4; [1]): 50 to 75% | inhibition at 10 µM (MLK4; read-out: inhibition (10 μM)): 56.9% | inhibition at 10 µM (PAK2; [1]): 0% | inhibition at 10 µM (PAK2; read-out: inhibition (10 μM)): 1.7% | inhibition at 10 µM (ZC3/MINK; [1]): 50 to 75% | inhibition at 10 µM (ZC3/MINK; read-out: inhibition (10 μM)): 66.6%

Nc1ncc(-c2cccc3ncsc23)cc1-c1ccc2c(c1)CCNC2=O [Compound I-13, 6-(2-amino-5-(benzo[d]thiazol-7-yl)pyridin-3-yl)-3,4-dihydroisoquinolin-1(2H)-one]
IC50 (STK3 (MST2)): 40 to 200 nM | YAP1 levels (YAP1; 1 μM, 16 hours): increase | PMOB1 levels (p-MOB1): reduced | % inhibition (range) (AKT2, AKT3): 0.0% | inhibition (10 μM) (AKT2, AKT3): 19.0% | inhibition at 10 µM (CDK9; read-out: % inhibition (range)): 35 to 50% | inhibition at 10 µM (CDK9; read-out: inhibition (10 μM)): 41.1% | inhibition at 10 µM (KHS2; read-out: % inhibition (range)): 0% | inhibition at 10 µM (KHS2; read-out: inhibition (10 μM)): 1.7% | inhibition at 10 µM (MAP2K2; read-out: % inhibition (range)): 0% | inhibition at 10 µM (MAP2K2; read-out: inhibition (10 μM)): -36.7% | inhibition at 10 µM (SGK2; read-out: % inhibition (range)): 0% | inhibition at 10 µM (SGK2; read-out: inhibition (10 μM)): 22.1%

— US10710978B2, “STK4 inhibitors for treatment of hematologic malignancies” (Dana-Farber Cancer Institute, Inc., priority 2015, dated 2020)
